Experiments:
[1] = Drug-drug interaction study Part 2: plasma PK after 50 mg mitapivat sulfate alone or with rifampin; assay type: in vivo, human; settings: for Nominal time of peak arithmetic mean concentration: postdose; for Nominal time of peak arithmetic mean concentration / AUC(0-inf) / AUC(0-t) / Cmax: plasma; for Total exposure in the presence of rifampin compared to dosing of mitapivat sulfate alone: 50 mg mitapivat sulfate, 600 mg rifampin; for AUC(0-inf) / AUC(0-t) / Cmax: both sexes, human, healthy subjects; for AUC(0-inf): read-out: AUC0-inf, Geometric LSM; for AUC(0-t): read-out: AUC0-t, Geometric LSM; for Cmax: read-out: Cmax, Geometric LSM
Protocol: (§1) Twenty-eight (28) healthy, adult male and female (non-childbearing potential) subjects were enrolled in the study in total; 14 subjects in each study part (Parts 1 and 2). A minimum of 8 female subjects were enrolled in the study (i.e., a minimum of 4 female subjects per study part). Each subject participated in either Part 1 or Part 2, but not both.
On Day 1 of Treatment Period 1, a single oral dose of 50 mg mitapivat sulfate was administered. Serial blood samples for plasma assay of mitapivat and the Metabolite concentrations were collected from predose to 120 hours following administration of mitapivat sulfate. In Treatment Period 2, an oral dose of 600 mg rifampin was administered QD for 12 consecutive days (Day 1 through Day 12 of Treatment Period 2) with a single oral dose of 50 mg mitapivat sulfate coadministered on Day 8. Serial blood samples for plasma assay of mitapivat sulfate and the Metabolite concentrations were collected from predose to 120 hours following coadministration of mitapivat and rifampin on Day 8.
In Part 2, study drugs were administered with approximately 240 mL of water on all dosing days including the coadministration of mitapivat sulfate and rifampin on Day 8 of Treatment Period 2. Mitapivat sulfate and rifampin was administered following an overnight fast of at least 10 hours on Day 1 of Treatment Period 1 (mitapivat sulfate only) and Day 8 of Treatment Period 2 (both mitapivat sulfate and rifampin) and subjects remained fasted for 4 hours after dosing. On all other dosing days, rifampin was administered following a predose fast of at least 4 hours and subjects remained fasted for at least 2 hours after dosing. There was a washout period of 7 days between the mitapivat sulfate dose in Treatment Period 1 and the first itraconazole (Part 1) or rifampin (Part 2) dose in Treatment Period 2. All study drugs were consumed within 5 minutes for both Part 1 and Part 2.
Mitapivat sulfate (50 mg tablets) administered along with Rifampin (also referred to as Rifadin®, 300 mg capsules) is considered as the test arm in this study. Mitapivat sulfate (50 mg tablets) administered alone is considered as the reference arm in this study.
In Period 1, a single oral dose of 50 mg mitapivat sulfate was administered orally. In Period 2, subjects were administered 600 mg rifampin (2×300 mg capsules) QD on Day 1 to Day 12 inclusive, with 50 mg mitapivat sulfate (1×50 mg tablet) coadministered on Day 8. Study drugs were administered with approximately 240 mL of water on all dosing days including the coadministration of mitapivat sulfate and rifampin on Day 8 of Period 2.
(§2) In Parts 1 and 2, for mitapivat and the Metabolite, blood samples were obtained for all subjects to determine the plasma concentrations of mitapivat, and the Metabolite, before mitapivat sulfate dosing (0 hour) on Day 1 of Period 1 (Parts 1 and 2) and Day 5 (Part 1) or Day 8 (Part 2) of Period 2 at 0.5, 1, 1.5, 2, 3, 4, 5, 6, 8, 12, 16, 24, 48, 72, 96, and 120 hours postdose. Plasma concentrations of mitapivat and the Metabolite were determined using methods validated with respect to accuracy, precision, linearity, sensitivity, and specificity, with a lower limit of quantitation (LLOQ) of 0.5 ng/mL for both analytes. A noncompartmental PK approach was used to analyze individual plasma mitapivat and the Metabolite concentration time data (using Phoenix® WinNonlin® Version 7.0). The following PK parameters were calculated: AUC0-t, AUC0-inf, AUC0-24, AUC%extrap, Cmax, CL/F (mitapivat only), Tlast, Tmax, t½, and Vz/F (mitapivat only).
(§3) PK parameters were presented with a minimum of 3 significant figures. […]

P-gp = P-gp (Homo sapiens, UniProt P08183); assay: Transporter inhibition; assay type: in vitro ADME
P-gp, sequence (P08183 whole entry): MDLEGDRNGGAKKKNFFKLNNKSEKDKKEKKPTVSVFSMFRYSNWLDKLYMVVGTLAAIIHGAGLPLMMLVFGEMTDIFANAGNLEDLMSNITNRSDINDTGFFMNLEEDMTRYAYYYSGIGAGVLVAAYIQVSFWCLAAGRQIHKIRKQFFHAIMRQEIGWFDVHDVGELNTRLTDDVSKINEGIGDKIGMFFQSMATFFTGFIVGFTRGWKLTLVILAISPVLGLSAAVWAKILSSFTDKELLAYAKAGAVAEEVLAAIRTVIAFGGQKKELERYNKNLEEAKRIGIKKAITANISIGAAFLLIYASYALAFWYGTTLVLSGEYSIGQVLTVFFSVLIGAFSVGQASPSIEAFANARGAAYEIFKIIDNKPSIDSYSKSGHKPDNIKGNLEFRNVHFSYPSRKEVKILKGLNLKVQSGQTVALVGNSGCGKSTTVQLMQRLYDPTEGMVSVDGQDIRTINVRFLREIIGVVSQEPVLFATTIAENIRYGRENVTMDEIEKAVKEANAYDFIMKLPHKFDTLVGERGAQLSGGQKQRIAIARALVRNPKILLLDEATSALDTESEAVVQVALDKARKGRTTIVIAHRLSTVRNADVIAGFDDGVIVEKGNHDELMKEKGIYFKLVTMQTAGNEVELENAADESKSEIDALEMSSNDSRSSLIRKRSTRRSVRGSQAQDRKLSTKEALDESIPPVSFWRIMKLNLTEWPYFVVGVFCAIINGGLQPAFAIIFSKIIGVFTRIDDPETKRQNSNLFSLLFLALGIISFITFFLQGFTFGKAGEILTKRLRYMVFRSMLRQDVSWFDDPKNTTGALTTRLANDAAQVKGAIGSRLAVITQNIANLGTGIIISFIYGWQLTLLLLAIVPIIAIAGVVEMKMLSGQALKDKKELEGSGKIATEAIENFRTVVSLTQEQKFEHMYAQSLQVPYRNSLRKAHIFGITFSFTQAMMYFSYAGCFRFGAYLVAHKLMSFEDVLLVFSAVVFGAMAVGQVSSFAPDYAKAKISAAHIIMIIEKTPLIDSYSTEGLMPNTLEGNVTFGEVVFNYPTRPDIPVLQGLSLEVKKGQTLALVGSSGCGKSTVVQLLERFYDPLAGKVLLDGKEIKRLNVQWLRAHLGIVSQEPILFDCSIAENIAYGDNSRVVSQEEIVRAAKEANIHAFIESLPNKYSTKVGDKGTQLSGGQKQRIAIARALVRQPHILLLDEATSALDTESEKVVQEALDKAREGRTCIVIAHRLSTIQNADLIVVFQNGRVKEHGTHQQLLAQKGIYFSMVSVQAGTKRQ

[2] = Drug-drug interaction study Part 1: plasma PK after 20 mg mitapivat sulfate alone or with itraconazole; assay type: in vivo, human; settings: for Total exposure in the presence of itraconazole compared to dosing of mitapivat sulfate alone: 20 mg mitapivat sulfate, 200 mg itraconazole; for AUC(0-inf) / AUC(0-t) / Cmax: both sexes, human, healthy subjects; for AUC(0-inf): read-out: AUC0-inf, Geometric LSM; for AUC(0-t): read-out: AUC0-t, Geometric LSM; for Cmax: read-out: Cmax, Geometric LSM
Protocol: as §1
On Day 1 of Treatment Period 1, a single oral dose of 20 mg mitapivat sulfate was administered. Serial blood samples for plasma assay of mitapivat concentrations and its CYP3A4 metabolite, referred to herein as the “Metabolite” (structure below),
[drawing 3] were collected from predose to 120 hours following administration of mitapivat sulfate. In Treatment Period 2, an oral dose of 200 mg itraconazole was administered once daily (QD) for 9 consecutive days (Day 1 through Day 9 of Treatment Period 2) with a single oral dose of 20 mg mitapivat sulfate coadministered on Day 5. Serial blood samples for plasma assay of mitapivat and the Metabolite concentrations were collected from predose to 120 hours following coadministration of mitapivat sulfate and itraconazole on Day 5.
In Treatment Period 1, mitapivat sulfate was administered orally with approximately 240 mL of water. In Treatment Period 2, on Days 1 to 4, itraconazole was administered alone immediately followed by approximately 220 mL of water, and on Day 5, itraconazole was administered first (no water) and was immediately followed by mitapivat sulfate administration with approximately 220 mL of water. Study drugs (mitapivat sulfate and itraconazole) were administered following an overnight fast of at least 10 hours on Day 1 of Treatment Period 1 (mitapivat sulfate only) and Day 5 of Treatment Period 2 (mitapivat sulfate and itraconazole), and subjects remained fasted for 4 hours after dosing. On all other dosing days, itraconazole was administered following a predose fast of at least 4 hours and subjects remained fasted for at least 2 hours after dosing.
Mitapivat sulfate (20 mg tablets) administered along with Itraconazole (also referred to as Sporanox®, 10 mg/mL oral solution, is considered as the test arm in this study. Mitapivat sulfate administered alone is considered as the reference arm in this study. In Period 1, a single oral dose of 20 mg mitapivat sulfate was administered orally with approximately 240 mL of water. In Period 2, on Day 5 (coadministration of itraconazole and mitapivat sulfate), 200 mg itraconazole (20 mL of 10 mg/mL oral solution) was administered first (no water) and was immediately followed by 20 mg mitapivat sulfate (1×20 mg tablet) administration with approximately 220 mL of water. On all other dosing days, itraconazole was administered alone immediately followed by approximately 220 mL of water. Each subject received 2 doses of mitapivat sulfate and 9 doses of itraconazole in Part 1.
as §2, §3

[3] = 50 mg mitapivat sulfate coadministered with 600 mg rifampin (Period 2)
[4] = 50 mg mitapivat sulfate given alone (Period 1)
[5] = 50 mg mitapivat sulfate oral alone (Reference)
[6] = 50 mg mitapivat sulfate oral on Day 8 + 600 mg rifampin QD Days 1-12 (Test)
[7] = plasma, 20 mg mitapivat sulfate oral alone (Reference)
[8] = plasma, 20 mg mitapivat sulfate oral on Day 5 + 200 mg itraconazole QD Days 1-9 (Test)

Compound | Nominal time of peak arithmetic mean concentration [1, 3] | Nominal time of peak arithmetic mean concentration [1, 4] | Total exposure in the presence of rifampin compared to dosing of mitapivat sulfate alone [1] | AUC(0-inf) [1, 5] | AUC(0-t) [1, 5] | Cmax [1, 5] | AUC(0-inf) [1, 6] | AUC(0-t) [1, 6] | Cmax [1, 6] | Inhibitor for P-gp (P-gp) | Total exposure in the presence of itraconazole compared to dosing of mitapivat sulfate alone [2] | AUC(0-inf) [2, 7] | AUC(0-t) [2, 7] | Cmax [2, 7] | AUC(0-inf) [2, 8] | AUC(0-t) [2, 8] | Cmax [2, 8] | Delay in time to peak concentration ([2]; coadministered with itraconazole compared to administered alone, plasma)
O=C(c1ccc(NS(=O)(=O)c2cccc3cccnc23)cc1)N1CCNCC1 [Metabolite] | ~1 h | approximately 2 hour | decreased | 663 ng·h/mL | 623 ng·h/mL | 53.8 ng/mL | 245 ng·h/mL | 230 ng·h/mL | 64.5 ng/mL | not an inhibitor | increased | 216 ng·h/mL | 197 ng·h/mL | 18.8 ng/mL | 339 ng·h/mL | 300 ng·h/mL | 9.11 ng/mL | –
O=C(c1ccc(NS(=O)(=O)c2cccc3cccnc23)cc1)N1CCN(CC2CC2)CC1 [Mitapivat, N-(4-(4-(cyclopropylmethyl)piperazine-1-carbonyl)phenyl)quinoline-8-sulfonamide] | ~0.5 h | approximately 1 hour | decreased | 5680 ng·h/mL | 5560 ng·h/mL | 1260 ng/mL | 496 ng·h/mL | 486 ng·h/mL | 292 ng/mL | – | increased | 1940 ng·h/mL | 1880 ng·h/mL | 412 ng/mL | 9480 ng·h/mL | 8860 ng·h/mL | 704 ng/mL | approximately 2 hours

Reference: patent US11878049B1, “Mitapivat therapy and modulators of cytochrome P450” (Agios Pharmaceuticals, Inc., priority 2019, dated 2024)
